Test results as given in patent US20190100519A1, “HYDROCHLORIDE SALT CRYSTAL OF DRUG FOR TREATING OR PREVENTING JAK-ASSOCIATED DISEASE AND PREPARATION METHOD THEREOF” (CRYSTAL PHARMATECH CO., LTD., priority 2016, published 2019).
≈ marks a conversion by molar mass, not a printed value. Like-named read-outs stand apart in the source and are kept apart here.

Legend:
[1] = clinical trials; cited from earlier work
[2] = Stability assessment of Form A (storage, XRPD); format: physicochemical; details: two weeks
Description: 5 samples (10.0 mg each) of Form A obtained from example 2 was stored at 5° C., 25° C./60% RH, 40° C./75% RH, 60° C./75% RH and 80° C. for two weeks, then XRPD test was performed after one week and two weeks. The results are depicted in FIG. 6 and FIG. 7. FIG. 6 is the XRPD overlay of one-week stability, and the patterns from top to bottom are initial Form A, and Form A after storing at 25° C./60% RH, 40° C./75% RH, 60° C./75% RH, 80° C. for one week, respectively. FIG. 7 is the XRPD overlay of two-week stability, and the patterns from top to bottom are initial Form A, and Form A after storing at 25° C./60% RH, 40° C./75% RH, 60° C./75% RH and 80° C. for two weeks, respectively.

[3] = Solubility assessment (saturated solutions, HPLC); format: physicochemical; details: for solubility at 1 h / solubility at 4 h: thermodynamic from solid
Description: The concentration of the saturated solutions was measured through HPLC after 1 hour and 4 hours.

[4] = Particle size comparison experiment (laser particle size analyzer); format: physicochemical; details: wet method, Isopar G
Description: Wet method was used and Isopar G was used as the dispersion medium. [table] The particle size distributions of obtained Form A (example 2), Form B (example 4), Form C (example 5), Form D (example 8) and the reference form were measured.

[5] = Slurry experiment in different water activities (XRPD); format: physicochemical
Description: The samples were centrifuged after 48 hours, and tested by XRPD.

[6] = simulated gastric fluid, Solubility SGF

| Compound | solubility compared with reference form [3] | Solubility Water ([3]; 1 h) | D10 [4] | D50 [4] | D90 [4] | MV (average particle size calculated by volume) [4] | Solubility SGF ([3]; 1 h) | Solubility SGF ([3]; 4 h) | Solubility Water ([3]; 4 h) | further results |
| --- | --- | --- | --- | --- | --- | --- | --- | --- | --- | --- |
| O=C(Nc1nc2cccc(-c3ccc(CN4CCS(=O)(=O)CC4)cc3)n2n1)C1CC1 [Filgotinib, N-[5-[4-[(1,1-dioxo-1-thiomorpholin-4-yl)methyl]phenyl][1,2,4]triazole[1,5-a]pyridin-2-yl] cyclopropanecarboxamide] | – | – | – | – | – | – | – | – | – | anemia and abnormal increase in LDL [1]: does not cause an anemia and abnormal increase in LDL |
| Cl.O=C(Nc1nc2cccc(-c3ccc(CN4CCS(=O)(=O)CC4)cc3)n2n1)C1CC1 [Form A] | higher solubility than the reference form | 1080 µg/mL | 1.72 μm | 8.93 μm | 62.08 μm | 24.64 μm | – | – | – | form change (XRPD) after storage ([2]; 5° C.): no form change; form change (XRPD) after storage ([2]; 25° C./60% RH): no form change; form change (XRPD) after storage ([2]; 40° C./75% RH): no form change; form change (XRPD) after storage ([2]; 60° C./75% RH): no form change; form change (XRPD) after storage ([2]; 80° C.): no form change; solubility at 1 h [3, 6]: 1280 µg/mL; solubility at 4 h [3, 6]: 1200 µg/mL; solubility at 4 h ([3]; water, Solubility Water): 2430 µg/mL |
| Cl.O=C(Nc1nc2cccc(-c3ccc(CN4CCS(=O)(=O)CC4)cc3)n2n1)C1CC1 [Form B] | higher solubility than the reference form | 5020 µg/mL | 2.53 μm | 20.30 μm | 110.4 μm | 44.66 μm | 1450 µg/mL | 960 µg/mL | 3590 µg/mL | – |
| Cl.O=C(Nc1nc2cccc(-c3ccc(CN4CCS(=O)(=O)CC4)cc3)n2n1)C1CC1 [Form C] | higher solubility than the reference form | 5180 µg/mL | 1.87 μm | 13.57 μm | 66.16 μm | 29.92 μm | 1930 µg/mL | 1120 µg/mL | 3060 µg/mL | – |
| Cl.O=C(Nc1nc2cccc(-c3ccc(CN4CCS(=O)(=O)CC4)cc3)n2n1)C1CC1 [Form D] | higher solubility than the reference form | 3000 µg/mL | 5.77 μm | 25.92 μm | 82.42 μm | 41.24 μm | 2220 µg/mL | 1150 µg/mL | 2370 µg/mL | – |
| O=C(Nc1nc2cccc(-c3ccc(CN4CCS(=O)(=O)CC4)cc3)n2n1)C1CC1 [Reference form, reference compound] | – | – | 2.95 μm | 6.29 μm | 12.35 μm | 7.24 μm | – | – | – | Final Form ([5]; H2O/ACN 1:99, water activity 0.2, slurry 48 hours): Form A; Final Form ([5]; H2O/ACN 2:98, water activity 0.4, slurry 48 hours): Form A; Final Form ([5]; H2O/EtOH 2:98, water activity 0.15, slurry 48 hours): Form A; Final Form ([5]; H2O/MeOH 7:93, water activity 0.2, slurry 48 hours): Form A; Final Form ([5]; H2O/MeOH 16:84, water activity 0.4, slurry 48 hours): Form A; stability under low water activity ([5]; low water activity): not stable; solubility at 1 h ([3]; simulated gastric fluid (SGF), simulated gastric fluid, simulated gastric fluid (SGF), 1 h, read-out: Solubility SGF): 70 µg/mL (≈ 165 µM); solubility at 4 h ([3]; simulated gastric fluid (SGF), simulated gastric fluid, simulated gastric fluid (SGF), 4 h, read-out: Solubility SGF): 920 µg/mL (≈ 2160 µM); solubility at 1 h ([3]; water, water, 1 h, read-out: Solubility Water): 810 µg/mL (≈ 1900 µM); solubility at 4 h ([3]; water, water, 4 h, read-out: Solubility Water): 3000 µg/mL (≈ 7050 µM) |
